# Test results reported in paper PMC8143347, “Metabolism and Interspecies Variation of IMMH-010, a Programmed Cell Death Ligand 1 Inhibitor Prodrug” (Pharmaceutics, 2021).
# pIC50: −log10 of the molar value.
# Key:
# [1] = Metabolism in monkey liver S9 fractions; type: in vitro ADME
# Procedure: (§1) IMMH-010 metabolism was compared in human, monkey, dog, and rat liver S9 homogenates. IMMH-010 (10 μM) was incubated with liver S9 homogenate protein (0.5 mg protein/mL) and a reduced nicotinamide adenine dinucleotide phosphate (NADPH) regenerating system in a final volume of 0.2 mL Tris-HCl buffer (50 mM, pH 7.4) containing 5 mM MgCl2. The reactions were performed in triplicate. After 2 min of preincubation at 37 °C, reactions were initiated by the addition of IMMH-010 (10 μM). The samples were collected 0, 5, 10, and 20 min after incubation, 2 volumes of acetonitrile were added to terminate the reaction. After vortexing and centrifugation, IMMH-010, YPD-29B, M3, and M4 in the supernatant were analyzed by LC-MS/MS.
# (§2) All statistics were calculated using GraphPad Prism 8.0 software (San Diego, CA, USA) designed for one-way ANOVA. Pharmacokinetic parameters were calculated with a non-compartmental analysis using WinNonlin Version 6.3 (Pharsight, Mountain View, CA, USA). ADMET predictor V10.0 (Simulations Plus, Inc., Lancaster, CA, USA) and Microsoft Excel (Microsoft, Redmond, WA, USA) were used to process the data (i.e., half-life (t1/2) and hepatic clearance (CLhep) determination). Data were expressed as means ± standard deviations (SD). Results were considered statistically significant if the p-value <0.05, <0.01 and <0.001.
# [2] = Metabolism in rat liver S9 fractions; type: in vitro ADME
# Procedure: as §1, §2
# [3] = molecular target: T1, recombinant human AADAC (Homo sapiens, UniProt P22760); test: IMMH-010 hydrolysis by recombinant human AADAC; type: in vitro ADME; conditions: 10 μM, AADAC 0.1 mg/mL, 15 min, 37 °C
# T1 construct: purchased CUSABIO Biotech Co., Ltd. (Wuhan, China)
# T1 sequence (P22760 1-399): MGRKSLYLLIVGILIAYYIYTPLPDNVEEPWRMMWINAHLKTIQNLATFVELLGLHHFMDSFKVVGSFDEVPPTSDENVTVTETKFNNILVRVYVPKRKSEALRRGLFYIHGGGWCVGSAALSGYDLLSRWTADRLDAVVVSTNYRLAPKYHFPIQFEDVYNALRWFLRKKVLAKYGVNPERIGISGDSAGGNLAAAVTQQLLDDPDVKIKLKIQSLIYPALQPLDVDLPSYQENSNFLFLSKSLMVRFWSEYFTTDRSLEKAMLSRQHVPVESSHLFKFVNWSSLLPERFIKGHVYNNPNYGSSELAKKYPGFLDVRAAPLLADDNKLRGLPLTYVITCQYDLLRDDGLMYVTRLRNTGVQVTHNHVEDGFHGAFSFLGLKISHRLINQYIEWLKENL
# Procedure: To verify the role of CES1, CES2, and AADAC in human metabolism of […]-010 (10 μM) was incubated individually with recombinant human CES1, CES2, and AADAC (0.1 mg protein/mL) at 37 °C for 15 min. Lidocaine (500 μM), CPT-11 (2 μM), and phenacetin (1 mM), which are substrates of CES1, CES2, and AADAC, were used as positive controls.
# [4] = test system: B16F10 melanoma; test: Antitumor activity in B16F10 melanoma xenograft model; type: in vivo, mouse
# Procedure: The antitumor activity of IMMH-010 was evaluated by B16F10 melanoma and MC38 colon carcinoma xenograft models. The B16F10 and MC38 cells were resuspended in saline (1.5 × 10^6 cells/0.2 mL saline) and injected subcutaneously into the right flanks of each mouse on day 0. The treated mice received once-daily oral administration of IMMH-010 maleate (1.25, 2.5, 5, and 10 mg/kg, n = 10) by oral gavage (PO) for 19 consecutive days, whereas the control mice received vehicle (0.5% carboxymethyl cellulose, n = 10). The mice in the positive control group received the anti-mouse PD-L1 antibody (696618M2, Bio X Cell, West Lebanon, NH, USA) at 10 mg/kg intraperitoneally every 3 days (n = 10). The first-line antineoplastic drug cyclophosphamide (CTX) was administered at doses of 80 and 40 mg/kg weekly in the B16F10 and MC38 models (n = 10), respectively. After the last treatment, on day 19, the mice were sacrificed, and the tumor and spleen were stripped and weighed. The tumor growth inhibition (TGI) was calculated as TGI = (1 − treatment group tumor weight/vehicle group tumor weight) × 100.
# [5] = Plasma and tumor PK in B16F10 melanoma xenograft mice; type: in vivo, mouse; conditions: B16F10 mice, after last oral dose of IMMH-010 maleate 5 mg/kg
# Procedure: After the final dose, tumor and blood samples treated with IMMH-010 maleate (5 mg/kg) were collected over 72 h. Blood was exposed in an EP tube containing 500 mM NaF and 0.5% heparin sodium. Plasma samples were obtained by centrifugation, and tumor tissues were homogenized with 3 volumes (w/v) of saline on ice. The concentration of IMMH-010 and YPD-29B in plasma and tumor samples was quantitated by an LC-MS/MS method.
# LC-MS/MS was performed using a triple quadrupole mass spectrometer (API 4000, AB Sciex, Framingham, MA, USA) with an ultra-performance liquid chromatography system (LC-30A, Shimadzu, Kyoto, Japan). Analyst 1.6.2 software (AB Sciex) was used for data acquisition and analysis. Mobile phase A was 1 mM ammonium acetate and mobile phase B was methanol. The mobile phase was delivered with the following gradient elution profile: 0–2.8 min, 70% B; 2.9 min, 85% B; 3 min, 90% B; 3.1–6.8 min, 100% B; 6.9–12 min, 70% B. The flow rate was 0.3 mL/min, and the column oven was maintained at 35 °C. The specific transitions monitored were 641.3 → 494.2 for IMMH-010, 597 → 155 for YPD-29B, 512 → 247 for M3, and 524 → 246 for M4.
# as §2
# [6] = test system: PD-1/PD-L1; conditions: stated in introduction, source not given; read-out: PD-L1 inhibitory activity IC50; cited from earlier work
# [7] = B16F10, IMMH-010 maleate 1.25 mg/kg PO once daily 19 days
# [8] = B16F10, IMMH-010 maleate 2.5 mg/kg PO once daily 19 days
# [9] = B16F10, IMMH-010 maleate 5 mg/kg PO once daily 19 days
# [10] = B16F10, IMMH-010 maleate 10 mg/kg PO once daily 19 days
smiles,measurement,setting,value
CC(C)OC(=O)[C@H](CO)NCc1cc(Cl)c(OCc2cccc(-c3ccccc3)c2Br)cc1OCc1cccnc1 [IMMH-010],estimated CLhep,[1]; from monkey liver S9,37.2 mL/min/kg
same,half-life at 10 μM,"[1]; pH 7.4, monkey liver S9 0.5 mg protein/mL, 10 μM, NADPH",8.28 min
same,estimated CLhep,[2]; from rat liver S9,58.4 mL/min/kg
same,half-life at 10 μM,"[2]; pH 7.4, rat liver S9 0.5 mg protein/mL, 10 μM, NADPH",7.1 min
same,remaining amount of IMMH-010,[3],98.7%
same,Tumor Weight (g) X ± SD,[4]; [7],1.78 ± 1.13 g
same,Tumor Weight TGI (%),[4]; [7],23%
same,Tumor Weight (g) X ± SD,[4]; [8],1.26 ± 0.85 g
same,Tumor Weight TGI (%),[4]; [8],45%
same,Tumor Weight (g) X ± SD,[4]; [9],1.39 ± 0.84 g
same,Tumor Weight TGI (%),[4]; [9],40%
same,Tumor Weight (g) X ± SD,[4]; [10],1.04 ± 0.66 g
same,Tumor Weight TGI (%),[4]; [10],55%
same,concentration of IMMH-010 in plasma and tumor tissues,[5],< 1 ng/mL
same,pIC50,[6],7.00 to 8.00
